Where two headings read alike, the source gives them in different places.
Tests used:
[1] = tested on: prolonged PGE2-induced hyperalgesia; experiment: Chronic inflammatory pain model: prolonged hyperalgesia in carrageenan-sensitized rats (Randall-Selitto paw-withdrawal test); format: in vivo; details: for duration of hyperalgesia in untreated rats: rats that have not received carrageenan injections; for duration of hyperalgesia in carrageenan-sensitized rats: seen up to three weeks after the carrageenan injection
Excerpt: In order to investigate the role, if any, of PKCε in chronic inflammatory pain, the following model system for chronic inflammatory pain was developed. Rats received intradermal hind paw injections of carrageenan, an inflammatory agent. […] This was considered an acute response to the carrageenan-induced inflammation. Although administration of Prostaglandin E2 ("PGE2"), 5-hydroxytryptamine ("5-HT," serotonin) or CGS-21680 (an adenosine A2-selective receptor agonist) normally causes untreated rats (that is, rats that have not received carrageenan injections) to experience hyperalgesia lasting up to 6 hours, the hyperalgesia experienced by carrageenan-sensitized rats following administration of any one of these substances lasted up to 24 hours.
The prolonged PGE2-induced hyperalgesia normally seen in carrageenan-sensitized rats was inhibited by administration of BIM or εV1-2.
To examine whether protein kinase C modulates the processes by which a brief inflammatory event causes prolonged hyperalgesia many days later, rats received carrageenan and 1µg BIM injections at the same time. Hyperalgesia was measured 72 hours later, when the rats were treated PGE2. […] Therefore, administration of an inhibitor of PKC either at approximately the same time as the inflammatory agent giving rise to chronic, prolonged hyperalgesia or at about the same time as the hyperalgesia-inducing stimulus can lessen such chronic hyperalgesia.

[2] = tested on: mechanical nociceptive threshold; experiment: von Frey hair paw-withdrawal frequency in wild-type mice; format: in vivo; details: 100ng by intraplantar injection prior to VFH stimulation (4, 6.9 or 14.8 grams)
Method: Mechanical, thermal and chemical nociception were evaluated in wild-type and PKCε-mutant mice.

[3] = tested on: PGE2-induced hyperalgesia; details: cited from earlier work; for Percentage decrease in nociceptive threshold in response to PGE2: PGE2 100 ng alone or with DAMGO, SQ22536, Rp-cAMPs (1 µg), data from Khasar 1995 / Taiwo and Levine 1991
[4] = tested on: vincristine-induced hyperalgesia; experiment: Vincristine-induced hyperalgesia model, mechanical stimuli (Ugo Basile analgesymeter); format: in vivo, rat; details: vincristine 100 µg/kg intravenously daily; after the second day
Method: (§1) Humans undergoing chemotherapy frequently experience hyperalgesia. Vincristine is a chemotherapeutic drug known to cause such hyperalgesia, and a rat model of vincristine-induced hyperalgesia was established as follows. Vincristine (100 µg/kg in saline; Sigma Chemical Catalog) was administered intravenously daily to each of 32 rats over a period of two weeks.
To determine whether administration of an inhibitor of PKCε would lessen vincristine-induced hyperalgesia in the rat model described above, on the 13th day of vincristine treatment, rats received no treatment (n= 16) or intradermal injections of sterile water followed by intradermal injections of either 1µg εV1-2, a PKCε inhibitory peptide (n=8; labeled "PKCεI" on Figure 12A), or 1µg S-VεV1-2, a scrambled version of the εV1-2 peptide (n=8; labeled "PCKεI SCR" on Figure 12A), 20-30 minutes before administration of a mechanical stimulus.

[5] = Rotorod analysis of motor deficits; format: in vivo, rat; details: vincristine 100 µg/kg intravenously daily
Method: as §1

TTX-RINa = format: cell-based, rat; details: for effect on epinephrine-induced potentiation of TTX-RINa: 2µM propranolol, 5µM phentolamine, 100µM Rp-cAMPs, 100µM BIM
[6] = tested on: small diameter DRG neurons
[7] = tested on: epinephrine-induced hyperalgesia; experiment: Epinephrine-induced mechanical hyperalgesia, paw-withdrawal threshold (Ugo Basile analgesymeter); format: in vivo, rat
[8] = tested on: isoproterenol-induced hyperalgesia; experiment: Isoproterenol-induced mechanical hyperalgesia, paw-withdrawal threshold; format: in vivo, rat; details: for effect on isoproterenol-induced hyperalgesia: intradermal, BIM 1 µg, WIPTIDE 100 ng, propranolol dose not given
Method: To examine the role of β-AR in epinephrine-induced hyperalgesia, propranolol, a β-AR antagonist, and isoproterenol, a selective β-AR agonist, were administered by intradermal injection.
(§2) The roles of PKC, protein kinase A ("PKA") and the µ-opioid receptor in mediating epinephrine-induced hyperalgesia were assessed by measuring the effects of: Rp-adenosine 3', 5'-cyclic monophosphate ("Rp-cAMPs") and WIPTIDE, both inhibitors of PKA; SQ22536, an inhibitor of adenylyl cyclase, an enzyme activated by PKA; bisindolymaleimide ("BIM"), a nonselective inhibitor of PKC isozymes; and [D-Ala^2,N-Me-Phe^4,Gly^5-ol]-enkephalin ("DAMGO"), p-opioid receptor agonist. The dose for each inhibitor was 1µg, except for WIPTIDE, which was administered in a 100ng dose. […] A large numeric value means more hyperalgesia.

[9] = tested on: epinephrine-induced hyperalgesia; experiment: Epinephrine-induced mechanical hyperalgesia, paw-withdrawal threshold (Ugo Basile analgesymeter); format: in vivo, rat; details: for effect on epinephrine-induced hyperalgesia: intradermal, rat hindpaw, inhibitors 1 µg (WIPTIDE 100 ng) 15 minutes prior to epinephrine, DAMGO co-injected, antagonist doses not given; for Percentage decrease in nociceptive threshold in response to epinephrine: epinephrine 100 ng alone or with DAMGO, SQ22536, BIM, Rp-cAMPs (all 1 µg) or WIPTIDE (0.1 µg), large value = more hyperalgesia
Method: as §2

basal paw threshold = details: similar dose of phentolamine, normal rat; earlier studies; cited from earlier work
[10] = tested on: formalin-induced hyperalgesia; details: similar dose of phentolamine; earlier studies; cited from earlier work
[11] = tested on: PGE2-induced hyperalgesia; experiment: PGE2-induced mechanical hyperalgesia, paw-withdrawal threshold; format: in vivo, rat
Method: The roles of PKC, protein kinase A ("PKA") and the µ-opioid receptor in mediating epinephrine-induced hyperalgesia were assessed by measuring the effects of: Rp-adenosine 3', 5'-cyclic monophosphate ("Rp-cAMPs") and WIPTIDE, both inhibitors of PKA; SQ22536, an inhibitor of adenylyl cyclase, an enzyme activated by PKA; bisindolymaleimide ("BIM"), a nonselective inhibitor of PKC isozymes; and [D-Ala^2,N-Me-Phe^4,Gly^5-ol]-enkephalin ("DAMGO"), p-opioid receptor agonist. The dose for each inhibitor was 1µg, except for WIPTIDE, which was administered in a 100ng dose. DAMGO was co-injected with epinephrine whereas the other inhibitors were applied 15 minutes prior to epinephrine injection. […] TABLE 1: Percentage decrease in nociceptive threshold in response to epinephrine, PGE2 or isoproterenol (each 100 ng) and effects of DAMGO, SQ22536, BIM, Rp-cAMPs (all 1 µg) or WIPTIDE (0.1 µg). A large numeric value means more hyperalgesia.
For mechanical nociceptive testing, the nociceptive flexion reflex was quantified using an Ugo Basile analgesymeter that applies a constantly increasing force measured in grams (Stoelting, Chicago, IL; K. O. Aley, J. D. Levine, J. Neurosci. 17, 8018-23 (1997)). The mean basal mechanical threshold for rats used in these experiments was 105.3+/-2.8 grams. The effects of hyperalgesia-inducing agents epinephrine (100ng) and PGE2 (100ng) on mechanical nociceptive thresholds were determined by measuring paw withdrawal frequencies at 15, 20, and 25 minutes after administration of the hyperalgesic agent and then calculating the mean of these three readings.

[12] = tested on: PGE2-induced hyperalgesia; details: PGE2 100 ng alone or with DAMGO, SQ22536, Rp-cAMPs (1 µg); data from Khasar 1995 / Taiwo and Levine 1991; cited from earlier work
[13] = 1µM epinephrine with 100µM BIM v. epinephrine alone
[14] = after 1µg epinephrine injection

## NCCc1c[nH]c2ccc(O)cc12 [5-HT, 5-hydroxytryptamine]
[1]
  duration of hyperalgesia in untreated rats: up to 6 hours
  duration of hyperalgesia in carrageenan-sensitized rats: up to 24 hours

## CCNC(=O)[C@H]1O[C@@H](n2cnc3c(N)nc(NCCc4ccc(CCC(=O)O)cc4)nc32)[C@H](O)[C@@H]1O [CGS-21680]
[1]
  duration of hyperalgesia in untreated rats: up to 6 hours
  duration of hyperalgesia in carrageenan-sensitized rats: up to 24 hours

## CCCCC[C@H](O)/C=C/[C@H]1[C@H](O)CC(=O)[C@@H]1C/C=C\CCCC(=O)O [PGE2, prostaglandin E2]
[2]
  percent-withdrawal response to VFH stimulus: dramatically increased
[1]
  duration of hyperalgesia in untreated rats: up to 6 hours
  duration of hyperalgesia in carrageenan-sensitized rats: up to 24 hours
[3]
  Percentage decrease in nociceptive threshold in response to PGE2: 33.6±1.9%

## CC[C@]1(O)C[C@H]2CN(CCc3c([nH]c4ccccc34)[C@@](C(=O)OC)(c3cc4c(cc3OC)N(C=O)[C@H]3[C@@](O)(C(=O)OC)[C@H](OC(C)=O)[C@]5(CC)C=CCN6CC[C@]43[C@@H]65)C2)C1 [Vincristine]
[4]
  mechanical nociceptive thresholds of vincristine-treated rats: acute dose-dependent decrease in mechanical nociceptive thresholds
[5]
  motor deficits (Rotorod analysis): did not show any significant motor deficits

## CNC[C@H](O)c1ccc(O)c(O)c1 [epinephrine]
TTX-RINa; [13]
  mean peak current increase: 49%
  number of neurons responsive to epinephrine: 8 out of 11
TTX-RINa; 1µM epinephrine, 14 out of 21 neurons
  neurons with an increase in TTX-RINa: 67%
TTX-RINa; 1µM epinephrine, hyperpolarized direction
  shift of current-voltage plots for activation: approximately 10 mV
TTX-RINa; 1µM epinephrine, isoproterenol application
  effect on TTX-RINa: marked potentiation
[2]
  percent-withdrawal response to VFH stimulus: dramatically increased
[6]; 1µM epinephrine
  mean resting potentials: unaffected
[6]; 1µM epinephrine, five minutes or more after start of perfusion, 1.7±0.2 before, 11 neurons
  average number of action potentials generated in response to the current ramp-and-plateau: 5.3±0.9
[6]; 1µM epinephrine, 5 of 11 neurons
  neurons showing a decrease in spike latency of at least 50ms: 45%
[6]; 1µM epinephrine, nine of 11 neurons
  neurons showing an increase in spike number: 81%
[6]; following 1µM epinephrine perfusion, 278±42ms without epinephrine, n=11
  mean latency from the start of current injection to the peak of the first spike: 189 ± 21 ms
[7]; [14]
  duration of epinephrine-induced hyperalgesia: approximately 2 hours
  onset latency of epinephrine-induced hyperalgesia (significant): 2 min
  time to peak effect of hyperalgesia: ≤ 5 min
[7]; epinephrine 100 ng alone or with DAMGO, SQ22536, BIM, Rp-cAMPs (all 1 µg) or WIPTIDE (0.1 µg), large value = more hyperalgesia
  Percentage decrease in nociceptive threshold in response to epinephrine: 29.6±2.1%
[7]; epinephrine 100ng only, or sterile water and 1µg scrambled peptide prior to epinephrine, mean of 15, 20, 25 minutes, n=8
  threshold reduction (mechanical nociceptive threshold): 25-30%
[7]; intradermal injections of 1ng to 1µg epinephrine, dorsal surface of hindpaw
  threshold at which the rat withdrew the paw: dose-dependent decrease

## COc1ccc2c(c1)c(CC(=O)O)c(C)n2C(=O)c1ccc(Cl)cc1 [indomethacin]
[7]; continuous treatment with 4mg/kg of indomethacin, n=8
  effect on the ability of epinephrine to induce hyperalgesia: Neither indomethacin treatment nor sympathectomy had any effect

## CC(C)NCC(O)c1ccc(O)c(O)c1 (centres unmarked) [isoproterenol]
[8]; intradermal injection of isoproterenol
  hyperalgesia produced in the absence of epinephrine: dose-dependent hyperalgesia

## Cc1ccc(N(CC2=NCCN2)c2cccc(O)c2)cc1 [phentolamine]
[9]
  effect on epinephrine-induced hyperalgesia: did not significantly affect
TTX-RINa; 1µM epinephrine
  effect on epinephrine-induced potentiation of TTX-RINa: did not
[3]; similar dose of phentolamine, earlier studies
  effect on ability of rolipram to prolong PGE2-induced hyperalgesia: inhibited
Basal paw threshold
  effect on basal paw threshold: no effect
[10]
  effect on formalin-induced hyperalgesia: significantly reversed

## CC(C)NCC(O)COc1cccc2ccccc12 (centres unmarked) [propranolol]
[9]
  effect on epinephrine-induced hyperalgesia: significantly attenuated
[8]
  effect on isoproterenol-induced hyperalgesia: significantly attenuated
TTX-RINa; 1µM epinephrine
  effect on epinephrine-induced potentiation of TTX-RINa: eliminated this potentiation

## Rp-adenosine 3', 5'-cyclic monophosphate [Rp-cAMPs]
[9]
  Percentage decrease in nociceptive threshold in response to epinephrine: 13.9 ± 4.6 %
TTX-RINa; 1µM epinephrine
  effect on epinephrine-induced potentiation of TTX-RINa: abolished
[3]
  Percentage decrease in nociceptive threshold in response to PGE2: 3.1 ± 5.2 %

## WIPTIDE
[9]
  Percentage decrease in nociceptive threshold in response to epinephrine: 10.9 ± 3.6 %
[11]; PGE2 100 ng with BIM (1 µg) or WIPTIDE (0.1 µg)
  Percentage decrease in nociceptive threshold in response to PGE2: 9.4 ± 3.1 %
[11]; same dose as for epinephrine: BIM 1 µg, WIPTIDE 100 ng
  effect on PGE2-induced hyperalgesia: significantly attenuated
[8]
  effect on isoproterenol-induced hyperalgesia: almost completely abolished
[8]; isoproterenol 100 ng alone or with BIM (1 µg) or WIPTIDE (0.1 µg)
  Percentage decrease in nociceptive threshold in response to isoproterenol: 1 ± 2.8 %

## [D-Ala^2,N-Me-Phe^4,Gly^5-ol]-enkephalin [DAMGO]
[9]
  Percentage decrease in nociceptive threshold in response to epinephrine: 11.5 ± 3.1 %
[12]
  Percentage decrease in nociceptive threshold in response to PGE2: 11.1 ± 4.0 %
